How the values were obtained:
Assay type in all cases: cell-based
MYB mRNA [1] = test: Splicing RT-qPCR assay (THP), Table 2A; details: Table 2A (THP); for AC50: AJ mRNA increase, read-out: MYB AJ (increase in alternative junction mRNA, AC50); for IC50: CJ mRNA decrease, read-out: MYB CJ (decrease in canonical junction mRNA, IC50)
HTT mRNA [2] = test: Splicing RT-qPCR assay (THP), Table 2A; details: Table 2A (THP); for AC50: AJ mRNA increase, read-out: HTT AJ (increase in alternative junction mRNA, AC50); for IC50: CJ mRNA decrease, read-out: HTT CJ (decrease in canonical junction mRNA, IC50)
HTT mRNA [3] = test: Gene panel canonical junction qPCR assay, decrease in CJ mRNA, Table 3; details: decrease in canonical junction (CJ) mRNA, gene panel qPCR, Table 3
Outline: (§1)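 A673 cells were plated, left to adhere for 24 h, then dosed; K562 cells were plated in 96- or 384-well format and dosed directly. Both were incubated 24 h at 37 °C with an 11-point 3-fold series (top 10 uM final). Canonical junction mRNA was then read by cDNA synthesis and qPCR.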

MYB mRNA [4] = test: as above; details: decrease in canonical junction (CJ) mRNA, gene panel qPCR, Table 3
Outline: as §1

[5] = tested on: SH-SY5Y (human neuroblastoma) cells; test: Cell viability, Cell Titer Glo 2.0 assay; details: read-out: Viability SHSY5Y.3 GI50
Outline: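 SH-SY5Y neuroblastoma cells are exposed to test compounds for 72 hours at 37 °C and 5% CO2, with final DMSO held at 0.1%. Cell viability is then measured with the CellTiter-Glo 2.0 assay.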

| Compound | AC50 (MYB mRNA [1]) | IC50 (MYB mRNA [1]) | AC50 (HTT mRNA [2]) | IC50 (HTT mRNA [2]) | IC50 (HTT mRNA [3]) | IC50 (MYB mRNA [4]) | GI50 [5] |
| --- | --- | --- | --- | --- | --- | --- | --- |
| CCNC1(C)CCN(c2ccc(C(=O)Nc3cn4cc(C)nc(C)c4c3F)c3nn(C)cc23)CC1 [Compound 571, 4-[4-(ethylamino)-4-methyl-1-piperidyl]-N-(8-fluoro-1,3-dimethyl-pyrrolo[1,2-a]-pyrazin-7-yl)-2-methyl-indazole-7-carboxamide] | 1 to 10 µM | 1 to 10 µM | > 10 µM | > 10 µM | > 10 µM | 1 to 10 µM | 1 to 10 µM |
| CCNC1CCN(c2ccc(C(=O)Nc3nc4c(C)nc(C)cc4[nH]3)c3nn(C)cc23)CC1 [Compound 572, N-(4,6-dimethyl-1H-imidazo[4,5-c]-pyridin-2-yl)-4-[4-(ethylamino)-1-piperidyl]-2-methyl-indazole-7-carboxamide] | 1 to 10 µM | 1 to 10 µM | > 10 µM | 1 to 10 µM | 1 to 10 µM | 1 to 10 µM | 1 to 10 µM |
| COc1cn2nc(C)nc2cc1NC(=O)c1ccc(N2CCC(NC3CC3)CC2)c2cn(C)nc12 [Compound 573, 4-[4-(cyclopropylamino)-1-piperidyl]-N-(6-methoxy-2-methyl-[1,2,4]triazolo-[1,5-a]-pyridin-7-yl)-2-methyl-indazole-7-carboxamide] | > 10 µM | > 10 µM | > 10 µM | > 10 µM | > 10 µM | > 10 µM | > 10 µM |
| COc1cc2nccn2cc1NC(=O)c1ccc(N2CCC(NC3CC3)CC2)c2cn(C)nc12 [Compound 574, 4-[4-(cyclopropylamino)-1-piperidyl]-N-(7-methoxy-imidazo[1,2-a]pyridin-6-yl)-2-methylindazole-7-carboxamide] | > 10 µM | > 10 µM | > 10 µM | > 10 µM | > 10 µM | > 10 µM | 1 to 10 µM |
| Cc1cn2cc(NC(=O)c3ccc(N4CCC(NCC5CC5)CC4)c4cn(C)nc34)nc2c(C)n1 [Compound 575] | 0.1 to 1 µM | 1 to 10 µM | > 10 µM | > 10 µM | > 10 µM | 1 to 10 µM | 1 to 10 µM |
| CCNC1CC2(C1)CN(c1ccc(C(=O)Nc3cn4cc(C)nc(C)c4n3)c3nn(C)cc13)C2 [Compound 576] | > 10 µM | > 10 µM | > 10 µM | > 10 µM | > 10 µM | > 10 µM | 1 to 10 µM |
| COc1cc2nn(C)cc2cc1NC(=O)c1ccc(N2CCC(NCC3CC3)CC2)c2cn(C)nc12 [Compound 577] | < 0.1 µM | 0.1 to 1 µM | 1 to 10 µM | 1 to 10 µM | 1 to 10 µM | 0.1 to 1 µM | 1 to 10 µM |
| CCNC1CC2(C1)CN(c1ccc(C(=O)Nc3cc4cn(C)nc4cc3OC)c3nn(C)cc13)C2 [Compound 578] | 0.1 to 1 µM | 0.1 to 1 µM | 0.1 to 1 µM | 0.1 to 1 µM | 0.1 to 1 µM | 0.1 to 1 µM | 0.1 to 1 µM |
| Cc1cn2cc(NC(=O)c3ccc(N4CCC(NC5CC5)CC4)c4cn(C)nc34)nc2c(-c2cnn[nH]2)n1 [Compound 579, 4-(4-(cyclopropylamino)piper-idin-1-yl)-2-methyl-N-(6-methyl-8-(1H-1,2,3-triazol-5-yl)-imidazo[1,2-a]pyrazin-2-yl)-2H-indazole-7-carbox-amide 2,2,2-trifluoroacetate] | > 10 µM | > 10 µM | > 10 µM | > 10 µM | > 10 µM | > 10 µM | > 10 µM |
| Cc1cn2cc(NC(=O)c3ccc(N4CCC(N)CC4)c4cn(C)nc34)c(F)c2c(C)n1 [Compound 580, 4-(4-amino-1-piperidyl)-N-(8-fluoro-1,3-dimethyl-pyrrolo[1,2-a]-pyrazin-7-yl)-2-methyl-indazole-7-carboxamide] | 1 to 10 µM | 1 to 10 µM | > 10 µM | > 10 µM | > 10 µM | 1 to 10 µM | 0.1 to 1 µM |
